Laboratory results from patent US20230220206A1, “REJUVENATING AGENTS FOR ASPHALT RECYCLING” (BASF SE, priority 2020, published 2023).
Like-named read-outs stand apart in the source and are kept apart here. Each block holds one molecule with its values, some of them ahead of it.

Columns and labels:
[1] = Softening point ring & ball of rejuvenated bitumen; settings: bitumen 20/30 rejuvenated with 5% of the compound, 180° C., 30 minutes
[2] = MSCR test, percentage elastic recovery; assay type: physicochemical; settings: bitumen 20/30 + 5% compound
[3] = bitumen 20/30 + 5% compound
[4] = labelling of the product itself; — = none; cited from earlier work
[5] = Softening point of rejuvenated aged bitumen; assay type: physicochemical; settings: aged bitumen 50/70 PCK Schwedt + 5% compound
[6] = MSCR elastic recovery of rejuvenated RAP bitumen; assay type: physicochemical; settings: bitumen extracted from RAP + 5% compound
[7] = Softening point of rejuvenated RAP bitumen; assay type: physicochemical; settings: bitumen extracted from RAP + 5% compound
[8] = Softening point of rejuvenated polymer-modified bitumen; assay type: physicochemical; settings: Olexobit 45 + 5% compound
[9] = Low temperature performance, bending beam rheometer (BBR) at −16° C.; assay type: physicochemical
Procedure: (§1) Different bitumen samples were rejuvenated as in Example 1, and the BBR values S (flexural creep stiffness) and m […] were evaluated at −16° C. The results were compared to the not rejuvenated bitumen sample as well as to the bitumen rejuvenated with the benchmark RheoFalt® HP-AM (Comp. 1.3).

[10] = Ageing index (RTFOT ageing) of rejuvenated polymer-modified bitumen; assay type: physicochemical; settings: Olexobit 45 + 5% compound; viscosity after ageing divided by viscosity before ageing
Excerpt: (§2) Herewith, it will be shown that the positive effects of the here claimed rejuvenating agents can also be applied to PmB, in this case Olexobit 45. Olexobit 45 was therefore rejuvenated according to the procedure of Example 1.

[11] = assay type: physicochemical; settings: aged bitumen 50/70 PCK Schwedt + 5% compound
[12] = MSCR elastic recovery of rejuvenated aged bitumen; assay type: physicochemical; settings: aged bitumen 50/70 PCK Schwedt + 5% compound
[13] = assay type: physicochemical; settings: Olexobit 45 + 5% compound
[14] = BBR of rejuvenated polymer-modified bitumen; assay type: physicochemical; settings: Olexobit 45 + 5% compound
Procedure: as §1

[15] = assay type: physicochemical; settings: bitumen extracted from RAP + 5% compound
[16] = Force ductility of rejuvenated polymer-modified bitumen; assay type: physicochemical; settings: Olexobit 45 + 5% compound
Excerpt: as §2

[17] = Loss tangent from DSR frequency sweep at 60° C.; assay type: physicochemical
Excerpt: In addition, it could be shown that additives according to the present invention perform most of the times better than the common benchmarks according to the standard testing techniques for the low, mid and high temperature range. What cannot be extracted from these measurements however is an indication of the working mechanism.

[18] = MSCR elastic recovery of rejuvenated polymer-modified bitumen; assay type: physicochemical; settings: Olexobit 45 + 5% compound
[19] = assay type: physicochemical; settings: aged bitumen 50/70 BP + 5% compound
[20] = Softening point of rejuvenated aged bitumen; assay type: physicochemical; settings: aged bitumen 50/70 BP + 5% compound
[21] = MSCR elastic recovery of rejuvenated aged bitumen; assay type: physicochemical; settings: aged bitumen 50/70 BP + 5% compound
[22] = TD NMR relaxation time measurements (SE-CPMG, multicomponent fitting); assay type: physicochemical; settings: for 1/<1/T2e>: harmonic average relaxation time of the mobile components
Excerpt: TD NMR, also known as NMR relaxometry, is a known NMR technique and relies on measuring the relaxation times of the nuclear spin system instead of frequency-domain spectra. […] Also, sample preparation is much simpler as there are no concerns about sample homogeneity and no solvents are needed.
Like that, a clear distinction between protons in a solid, amorphous and liquid component can be made with good accuracy.
Bitumen 20/30 was rejuvenated with some of the here claimed rejuvenating agents according to example 1. The pure bitumen 20/30 as well as the rejuvenated bitumen 20/30 samples were then analyzed by TD NMR. To do so, all samples were heated up to 80° C. to allow filling of the samples into NMR tubes. After that, TD NMR measurements at 30° C., 80° C. and 140° C. were conducted using the SE-CMPG sequence. This sequence consists of a solid echo combined with a so-called CPMG (Carr-Purcell-Meiboom-Gill) train of subsequent spin echoes with alternating phase and is capable of recording the decay of coherence in the transverse nuclear magnetization over about 5 orders of magnitude in time. Depending on the measurement temperature, the experimental data were then fitted with semi-empirically selected multicomponent models involving several Gaussian and exponential components:
S(t)=[pg1 exp(−(t/T2g1)^2)+pg2 exp(−(t/T2g2)^2)]+pe1 exp(−t/T2e1)[pe2 exp(−t/T2e2)+pe3 exp(−t/T2e3)]
In order to assess the effect of temperature on the molecular mobility of the bitumen, experiments were conducted at temperatures of 30° C., 80° C. and 140° C., and the following models turned out to provide adequate fits of the respective normalized signal decay curves: • two Gaussians and one exponential at 30° C., • two Gaussians and two exponentials at 80° C., • three exponentials at 140° C.
From the fitting, different values can be obtained: • The p values (pg1, pg2, pe1, pe2 and pe3), indicating the signal fraction of the individual component scaled in the range from 0 to 1 • The T2 values (T2g1, T2g2, T2e1, T2e2 and T2e3), indicating the relaxation times that correspond to each of the individual components. The longer the relaxation time, the higher the molecular mobility of the respective component • In addition to the values T2e1, T2e2 and T2e3, we also calculated the average relaxation time of the mobile components, 1/<1/T2e>, for the temperatures at which more than one mobile component exist (80 and 140° C.). 1/<1/T2e> Is calculated as the harmonic average of the relaxation times involved:
[formula] • The type of the component, those being: • g1: the rigid component • g2: the partially mobile component • e1, e2 and e3: mobile components with increasingly high local molecular mobilities
It is believed that the rigid component g1 is directly correlated with the amount of the asphaltene aggregates. The mobile component(s) on the other hand can be attributed to the maltene phase.

[23] = aged bitumen 50/70 BP + 5% compound, lowest frequency
[24] = aged bitumen 50/70 PCK Schwedt + 5% compound, lowest frequency
[25] = bitumen 20/30 + 5% compound, lowest frequency (0.01 rad/s)
[26] = bitumen extracted from RAP + 5% compound, lowest frequency
[27] = aged bitumen 50/70 BP + 5% compound
[28] = 30° C., bitumen 20/30 + additive
[29] = 80° C., bitumen 20/30 + additive
[30] = 140° C., bitumen 20/30 + additive

Molecule: CC(COCC1CO1)(COCC1CO1)c1ccccc1 (stereo not drawn) [2-Methyl-2-phenyl-1,3-propandiol bis glycidylether]
SP [° C.] (softening point) [1]: 52.0 °C
MSCR % Rec. (0.1 kPa) [2]: 8%
MSCR % Rec. (1.6 kPa) [2]: 3%
MSCR % Rec. (3.2 kPa) [2]: 1%
η(135° C.) [mPas] [3]: 900 mPas

Molecule: CC(C)CCCCCCOC(=O)c1ccccc1C(=O)OCCCCCCC(C)C [Palatinol ® DINP, diisononyl phthalate]
SP [° C.] (softening point) [1]: 52.0 °C
MSCR % Rec. (0.1 kPa) [2]: 9%
MSCR % Rec. (1.6 kPa) [2]: 3%
MSCR % Rec. (3.2 kPa) [2]: 1%
η(135° C.) [mPas] [3]: 950 mPas

Molecule: Dodecenyl succinic acid anhydride
η(135° C.) [mPas] [3]: 950 mPas

Molecule: CC(C)(COCC1CO1)COCC1CO1 (stereo not drawn) [Neopentylglycol bis glycidylether]
SP [° C.] (softening point) [1]: 52.0 °C
MSCR % Rec. (0.1 kPa) [2]: 11%
MSCR % Rec. (1.6 kPa) [2]: 5%
MSCR % Rec. (3.2 kPa) [2]: 2%
η(135° C.) [mPas] [3]: 1,050 mPas
tox (toxicology/eco toxicology) [4]: Irritating

More lines, main results first:

SP [° C.] (softening point) [1]: 64.0 °C
MSCR % Rec. (0.1 kPa) [2]: 27%
MSCR % Rec. (1.6 kPa) [2]: 25%
MSCR % Rec. (3.2 kPa) [2]: 21%
η(135° C.) [mPas] [3]: 2,100 mPas
Molecule: CCCCCCCCCCCCc1ccc(S(=O)(=O)O)cc1 [Dodecylbenzene sulfonic acid]
tox (toxicology/eco toxicology) [4]: Harmful

SP [° C.] (softening point) [1]: 57.0 °C
MSCR % Rec. (0.1 kPa) [2]: 16%
MSCR % Rec. (1.6 kPa) [2]: 10%
MSCR % Rec. (3.2 kPa) [2]: 5%
η(135° C.) [mPas] [3]: 1,000 mPas
Molecule: Polyethylenglycol bis glycidylether

SP [° C.] [5]: 56.0 °C
MSCR % Rec. (0.1 kPa) [6]: 16%
MSCR % Rec. (1.6 kPa) [6]: 12%
MSCR % Rec. (3.2 kPa) [6]: 7%
SP [° C.] [7]: 59.0 °C
SP [° C.] [8]: 49.0 °C
S-value [MPa] (flexural creep stiffness) ([9]; bitumen 20/30 + 5% compound): 90 MPa
m-value ([9]; bitumen 20/30 + 5% compound): 0.41
AI (ageing index) [10]: 2.1
SP [° C.] (softening point) [1]: 52.0 °C
η(135° C.) [mPas] [11]: 1,000 mPas
MSCR % Rec. (0.1 kPa) [2]: 10%
MSCR % Rec. (1.6 kPa) [2]: 4%
MSCR % Rec. (3.2 kPa) [2]: 1%
MSCR % Rec. (0.1 kPa) [12]: 11%
MSCR % Rec. (1.6 kPa) [12]: 7%
MSCR % Rec. (3.2 kPa) [12]: 3%
η(135° C.) [mPas] [13]: 700 mPas
BBR S-value [MPa] [14]: 80 MPa
BBR m-value [14]: 0.43
η(135° C.) [mPas] [15]: 1,200 mPas
η(135° C.) [mPas] [3]: 950 mPas
Force Ductility Fmax [N] [16]: 12 N
Force Ductility W [J/cm^2] [16]: 1.0 J/cm^2
tan δ [17, 23]: 35
tan δ [17, 24]: 40
tan δ [17, 25]: 45
tan δ [17, 26]: 25
MSCR % Rec. (0.1 kPa) ([18]; 0.1 kPa): 19%
MSCR % Rec. (1.6 kPa) ([18]; 1.6 kPa): 7%
MSCR % Rec. (3.2 kPa) ([18]; 3.2 kPa): 4%
η(135° C.) [mPas] [19]: 1,000 mPas
SP [° C.] [20]: 56.5 °C
MSCR % Rec. (0.1 kPa) [21]: 14%
MSCR % Rec. (1.6 kPa) [21]: 10%
MSCR % Rec. (3.2 kPa) [21]: 5%
Molecule: CC(C)CCCCCCOC(=O)C1CCCCC1C(=O)OCCCCCCC(C)C (stereo not drawn) [Hexamoll ® DINCH, diisononyl cyclohexane-1,2-dicarboxylate]

SP [° C.] [5]: 50.0 °C
MSCR % Rec. (0.1 kPa) [6]: 7%
MSCR % Rec. (1.6 kPa) [6]: 3%
MSCR % Rec. (3.2 kPa) [6]: 1%
SP [° C.] [7]: 53.0 °C
S-value [MPa] (flexural creep stiffness) [9, 27]: 90 MPa
m-value [9, 27]: 0.43
S-value [MPa] (flexural creep stiffness) ([9]; bitumen 20/30 + 5% compound): 90 MPa
m-value ([9]; bitumen 20/30 + 5% compound): 0.44
SP [° C.] (softening point) [1]: 47.0 °C
η(135° C.) [mPas] [11]: 700 mPas
MSCR % Rec. (0.1 kPa) [2]: 4%
MSCR % Rec. (1.6 kPa) [2]: 1%
MSCR % Rec. (3.2 kPa) [2]: 0%
MSCR % Rec. (0.1 kPa) [12]: 5%
MSCR % Rec. (1.6 kPa) [12]: 1%
MSCR % Rec. (3.2 kPa) [12]: 0%
η(135° C.) [mPas] [15]: 850 mPas
η(135° C.) [mPas] [3]: 800 mPas
T2e1 [22, 28]: 0.20 ms
T2g1 [22, 28]: 0.016 ms
T2g2 [22, 28]: 0.045 ms
pe1 ([22]; 30° C., mobile component, bitumen 20/30 + additive): 0.44
pg2 ([22]; 30° C., partially mobile component, bitumen 20/30 + additive): 0.17
pg1 ([22]; 30° C., signal fraction of rigid component, bitumen 20/30 + additive): 0.38
T2e1 [22, 29]: 0.50 ms
T2e2 [22, 29]: 2.53 ms
T2g1 [22, 29]: 0.017 ms
T2g2 [22, 29]: 0.054 ms
pe1 [22, 29]: 0.48
pe2 [22, 29]: 0.35
pg1 [22, 29]: 0.09
pg2 [22, 29]: 0.074
1/<1/T2e> ([22]; 80° C.): 0.76 ms
T2e1 [22, 30]: 0.21 ms
T2e2 [22, 30]: 4.76 ms
T2e3 [22, 30]: 25.72 ms
pe1 [22, 30]: 0.18
pe2 [22, 30]: 0.47
pe3 [22, 30]: 0.34
1/<1/T2e> ([22]; 140° C.): 1.0 ms
tan δ [17, 23]: 80
tan δ [17, 24]: 100
tan δ [17, 25]: 80
tan δ [17, 26]: 70
η(135° C.) [mPas] [19]: 950 mPas
SP [° C.] [20]: 51.0 °C
MSCR % Rec. (0.1 kPa) [21]: 5%
MSCR % Rec. (1.6 kPa) [21]: 2%
MSCR % Rec. (3.2 kPa) [21]: 0%
Molecule: CCCCCCCCCCCCN1CCCC1=O [N-Dodecyl pyrrolidone]
